Results published in publication PMC10578023 (Cell Communication and Signaling : CCS, 2023).
pIC50: −log10 of the molar value.

Experiments:
JAK2/JAK2 [1] = assay: TPO-stimulated pSTAT3/STAT5 in platelets of human whole blood; format: cell-based
Protocol: Stimulation was terminated by adding Lyse/Fix buffer. Staining with BUV786 mouse anti-human CD61 antibody (744384; BD Biosciences) was carried out, followed by washing, permeabilization and staining with PE mouse anti-human STAT3 antibody (651004; BD Biosciences) and APC mouse anti-human STAT5 antibody (562076; BD Biosciences), as described above. The expression of p-STAT3 and STAT5 was quantified by the MFI after the number of CD61-positive platelets was optimized.

JAK1/JAK3 [2] = assay: IL-2-stimulated pSTAT5 in human whole blood; format: cell-based
Protocol: With respect to IL-2-stimulated JAK1/3 activation in human whole blood cells, whole blood (50 μL) was preincubated with compounds for 30 min and then stimulated with IL-2 (20 ng/mL) for 15 min.
(§1) The stimulations stated above were terminated with prewarmed Lyse/Fix Buffer (558,049; BD Biosciences, San Jose, CA, USA) for 10 min. Cells were stained with an anti-cluster of differentiation (CD)3 fluorescein isothiocyanate (FITC) antibody (required for PBMCs but not for the other cell types), washed, and permeabilized on ice using Perm III Buffer (558,050; BD Biosciences) prior to staining with an Alexa Fluor 647 anti-phosphorylated (p)STAT5 (pY694) antibody for 30 min and analyzed by flow cytometry. Phosphorylation of STAT5 was quantified by the median fluorescence intensity (MFI) after gating on the CD3-positive population.

TYK2/JAK1 [3] = assay: IFNα HEK293 (HEK-Blue IFN-α/β) reporter gene assay; format: cell-based, human
Protocol: HEK-Blue™ IFN-α/β cells were used to determine the activity of QL-1200186. After 24 h of incubation with QL-1200186, HEK-Blue™ IFN-α/β cells (Invivogen; NKB-IFNAB) were stimulated with human IFNα (200 U/mL; catalog number: 11200–2; PBL Assay Science; Piscataway, NJ, USA) for 6 h. Stimulation of HEK-Blue IFN-α/β cells with human IFNα activates the JAK/STAT/ISGF3 pathway and subsequently induces the production of SEAP. Levels of SEAP in the supernatant were readily assessable using QUANTI-Blue™ Solution (InvivoGen, San Diego, CA, USA).

TYK2/JAK1 [4] = assay: IL-23 HEK293 reporter assay; format: cell-based, human
TYK2/JAK1 [5] = assay: IFNα-stimulated pSTAT5 in human PBMC (CD3+), FACS; format: cell-based
Protocol: With regard to IFNα-stimulated phosphorylation of STAT5 in human peripheral blood mononuclear cells (PBMCs), after incubation with QL-1200186 for 1 h, human PBMCs were stimulated with recombinant human IFNα (1000 U/mL; 11200–2; PBL Assay Science) for 30 min.
as §1

TYK2/JAK1 [6] = assay: IL-23-induced pSTAT3 in human Th17 cells; format: cell-based
Protocol: Human naïve CD4^+ T cells were separated using a human naïve CD4^+ T-cell isolation kit (StemCell, #17,852), and then cells were stimulated with anti-CD3 monoclonal antibody and anti-CD28 monoclonal antibody for 7–10 days under the following Th17-skewing treatments: IL-6, IL-23, IL-1β and transforming growth factor-β. Half of the medium was replaced with fresh medium containing a stimulant to induce differentiation every other day. Th17 cells were incubated overnight at 37 °C for deactivation. Cells were reinoculated on 96-well plates and cocultured with gradient-diluted QL-1200186 for 1 h and then stimulated with recombinant human IL-23 (ACRO: #IL-B-H52 WS) for 0.5 h. Cells were collected, and phosphorylation of STAT3 was quantified according to the MFI.

TYK2/JAK2 = assay: IL-12/IL-18-induced IFNγ production in NK-92 cells, ELISA; format: cell-based, human
Protocol: The inhibitory effect of QL-1200186 on IL-12/IL-18-induced IFNγ production in NK cells or human whole blood was determined by enzyme-linked immunosorbent assay (ELISA). NK92 cells were stimulated with recombinant human IL-12 (2 ng/mL; 200–12; PeproTech, Cranbury, NJ, USA) and recombinant human IL-18 (5 ng/mL; 9124-IL-050/CF; R&D Systems, Minneapolis, MN, USA) with or without QL-1200186 for 24 h at 37 °C. For human whole blood cells, whole blood (200 μL) was preincubated with the compound for 1 h and then stimulated with recombinant human IL-12 (2 ng/mL) or recombinant human IL-18 (10 ng/mL) for 24 h. After centrifugation, the supernatant was collected, and IFNγ production in the supernatant was measured with human IFNγ ELISA kits according to the manufacturer’s instructions (Biolegend, 430,104).

TYK2/JAK1 [7] = assay: IFNα-induced pSTAT1 in CD3+ T cells of human PBMCs; format: cell-based
Protocol: (§2) The reaction was terminated by collecting cells for surface staining. Cells were stained with anti-CD3 FITC (300406; Biolegend, San Diego, CA, USA), anti-CD19 APC (555415; BD Biosciences) or aqua fluorescent reactive dye BV421 (L34966A; Invitrogen, Carlsbad, CA, USA) antibodies for 20 min. After washing, fixation buffer (557870; BD Biosciences) was added and incubated for 10 min. Cells were washed and permeabilized on ice using Perm III Buffer (558050; BD Biosciences). Cells were stained with PE anti-PSTAT1 antibody (562069; BD Biosciences) for 30 min and analyzed by flow cytometry.

TYK2/JAK1 [8] = assay: IFNα-induced pSTAT1 in CD19+ B cells of human PBMCs; format: cell-based
Protocol: as §2

JAK1/JAK3 [9] = assay: IL-2-stimulated pSTAT5 in human PBMC; format: cell-based; details: @10μM
Protocol: With regard to IL-2-stimulated JAK1/3 activation in human PBMCs, after 1 h of incubation with QL-1200186, human PBMCs were stimulated with human IL-2 (20 ng/mL; C013; Novoprotein) for 20 min.
as §1

JAK2/JAK2 [10] = assay: GM-CSF-stimulated pSTAT5 in U937 cells; format: cell-based, human; details: @10μM
Protocol: With respect to GM-CSF-stimulated JAK2 activation in U937 cells (Cobioer Biosciences, CBP60277), after 1 h of treatment with QL-1200186, U937 cells were stimulated with GM-CSF (20 ng/mL; C003; Novoprotein, Suzhou, China) for 15 min.
as §1

Compound	activity in thrombopoietin (TPO)-induced JAK2/JAK2 signaling (JAK2/JAK2 [1]; human whole blood)	activity in IL-2-mediated JAK1/JAK3 signaling (JAK1/JAK3 [2])	pIC50 (TYK2/JAK1 [3])	pIC50 (TYK2/JAK1 [4])	pIC50 (TYK2/JAK1 [5])	pIC50 (TYK2/JAK1 [6])	pIC50 (TYK2/JAK2)	pIC50 (TYK2/JAK1 [7])	pIC50 (TYK2/JAK1 [8])	IL-2- pSTAT5 in PBMC (JAK1/JAK3) inhibition (JAK1/JAK3 [9])	GM-CSF-pSTAT5 in U937 (JAK2/JAK2) inhibition (JAK2/JAK2 [10])	TPO-pSTAT3/STAT5 in human whole blood (JAK2/JAK2) inhibition (JAK2/JAK2 [1]; @10μM)
CNc1cc(Nc2cccn(-c3ccccn3)c2=O)nc2c(C(=O)N[C@@H]3CC[C@H]3OC)cnn12 [NDI-034858, reference compound]	no activity	no activity										
deucravacitinib [BMS-986165, reference compound]		slight inhibitory effect	8.20	8.19	7.72	8.22	7.41	8.11	8.20	~40% inhibition @10μM	~10% inhibition @10μM	no inhibition @10μM
